Data taken from patent publication US20250134855A1, “CO[…] AND METHODS OF USING SAME” (LYKOS THERAPEUTICS, INC., priority 2022, published 2025).

Assays:
dogs = test: Daily 28-day repeated dose toxicology study, dogs; format: in vivo, dog; conditions: 0, 3, 9, or 15 mg/kg/day, daily 28 days
Procedure: Based on negative in vivo and in vitro genotoxicity studies, the carcinogenic risk of MDMA·HCl is low. No tumors were reported after daily 28-day repeated dose toxicology studies of MDMA in rats (0, 10, 50, or 100 mg/kg/day) or dogs (0, 3, 9, or 15 mg/kg/day).

human Caco-2 cells = test: Caco-2 permeability
[1] = tested on: MDMA-AT trial participants (MAPP1 and MAPP2); test: MPLONG long-term follow-up: CAPS-5 durability, responder analysis, relapse; format: in vivo, human
Text: MPLONG is an observational long-term follow-up study for MDMA-AT trial participants intended to provide data on treatment durability as measured by the CAPS-5 and Sheehan Disability Scale (SDS). Participants who elect to enroll in MPLONG completed a LTFU visit at least 6 months following their completion of the parent study. MPLONG opened for enrollment 8 months following the last subject visit of the MAPP1 trial and MAPP1 participants entered MPLONG unblinded to their treatment assignment. Enrollees from the second Phase 3 trial MAPP2, however, complete LTFU with blinding maintained.
A sensitivity analysis was conducted to determine whether there was a detectable difference in the observed trend dependent on the time elapsed since the parent study (Table 47 (Table 47 (Table 47). There was no observable impact of the time window, as durability was maintained in both those with LFTU within a year and those with LTFU greater than 12 months after study termination.

[2] = tested on: CYP2B6, CYP2D6, CYP2C19, CYP1A2, CYP3A4, CYP2C9, CYP2C8; test: CYP enzymes metabolizing MDMA; conditions: less contribution by CYP2C19, CYP1A2, CYP3A4, CYP2C9, and CYP2C8
[3] = LTFU visit, MAPP1 and MAPP2, loss of diagnosis at study termination and ≥10 point increase and meeting PTSD diagnostic criteria at LTFU
[4] = LTFU visit, MAPP1 and MAPP2, remission at study termination and >11 CAPS-5 TSS at LTFU
[5] = LTFU visit, MAPP1 and MAPP2, ≤11 CAPS-5 TSS from BL not meeting PTSD diagnostic criteria at LTFU
[6] = LTFU visit, MAPP1 and MAPP2, ≥10 point reduction in CAPS-5 TSS from BL and ≥10 point increase from study termination at LTFU
[7] = LTFU visit, MAPP1 and MAPP2, ≥10 pt reduction in CAPS-5 TSS from BL and not meeting PTSD diagnostic criteria at LTFU
[8] = LTFU visit, MAPP1 and MAPP2, ≥10 pt reduction in CAPS-5 TSS from BL at study termination and LTFU
[9] = MAPP1 and MAPP2, LTFU 6-12 Months
[10] = MAPP1 and MAPP2, LTFU >12 Months
[11] = MAPP1 and MAPP2, Study Termination (last available assessment in parent study)
[12] = MAPP2 participants only, Long Term Follow Up Study Visit 1
[13] = MPLONG, MAPP1 and MAPP2 participants, Visit 1
[14] = MPLONG, MAPP1 and MAPP2 participants, parent study Baseline
[15] = MPLONG, MAPP1 and MAPP2 participants, parent study Visit 8
[16] = MPLONG, MAPP1 and MAPP2 participants, parent study Visit 13
[17] = MPLONG, MAPP1 and MAPP2 participants, parent study Visit 19
[18] = MPLONG, MAPP2 participants only, parent study Baseline
[19] = MPLONG, MAPP2 participants only, parent study Visit 8
[20] = MPLONG, MAPP2 participants only, parent study Visit 13
[21] = MPLONG, MAPP2 participants only, parent study Visit 19

CNC(C)Cc1ccc2c(c1)OCO2 (stereo not shown) [MDMA, 3,4-methylenedioxymethamphetamine]
tumors (dogs): No tumors
permeability in human Caco-2 cells (human Caco-2 cells): highly permeable
Relapse after Loss of Diagnosis, Does not meet criteria, % [1, 3]: (93.8) %
Relapse after Loss of Diagnosis, Meets criteria, % [1, 3]: (6.2) %
Relapse of Remission, Does not meet criteria, % [1, 4]: (95.4) %
Relapse of Remission, Meets criteria, % [1, 4]: (4.6) %
Durable Remission, Does not meet criteria, % [1, 5]: (40.0) %
Durable Remission, Meets criteria, % [1, 5]: (60.0) %
Relapse after Treatment Response, Does not meet criteria, % [1, 6]: (93.8) %
Relapse after Treatment Response, Meets criteria, % [1, 6]: (6.2) %
Durable Loss of Diagnosis, Does not meet criteria, % [1, 7]: (16.9) %
Durable Loss of Diagnosis, Meets criteria, % [1, 7]: (83.1) %
Durable Treatment Response, Does not meet criteria, % [1, 8]: (10.8) %
Durable Treatment Response, Meets criteria, % [1, 8]: (89.2) %
loss of diagnosis at LTFU ([1]; MAPP1 and MAPP2): 83.1%
met the definition of treatment response at LTFU ([1]; MAPP1 and MAPP2): 89.2%
relapse following remission ([1]; MAPP1 and MAPP2): 4.6%
relapse following treatment response or loss of diagnosis ([1]; MAPP1 and MAPP2): 12.3%
remission at LTFU ([1]; MAPP1 and MAPP2): 60%
CAPS-5 Total Severity Score, Actual, Mean [1, 9]: 11.9
CAPS-5 Total Severity Score, Actual, Median [1, 9]: 9.0
CAPS-5 Total Severity Score, Change from Study Termination, Mean [1, 9]: −3.7
CAPS-5 Total Severity Score, Change from Study Termination, Median [1, 9]: −2.5
CAPS-5 Total Severity Score, Actual, Mean [1, 10]: 11.2
CAPS-5 Total Severity Score, Actual, Median [1, 10]: 6.0
CAPS-5 Total Severity Score, Change from Study Termination, Mean [1, 10]: −5.9
CAPS-5 Total Severity Score, Change from Study Termination, Median [1, 10]: −5.0
CAPS-5 Total Severity Score, Actual, Mean [1, 11]: 16.4
CAPS-5 Total Severity Score, Actual, Median [1, 11]: 15.0
mean change from baseline (CFB) in CAPS-5 scores at LTFU ([1]; MAPP2 parent study): −28.7
CAPS-5 Total Severity Score, Actual, Mean [1, 12]: 10.7
CAPS-5 Total Severity Score, Actual, Median [1, 12]: 8.5
CAPS-5 Total Severity Score, CFB, Mean [1, 12]: −28.7
CAPS-5 Total Severity Score, CFB, Median [1, 12]: −30.5
CAPS-5 Total Severity Score, Actual, Mean [1, 13]: 11.5
CAPS-5 Total Severity Score, Actual, Median [1, 13]: 8.0
CAPS-5 Total Severity Score, CFB, Mean [1, 13]: −29.2
CAPS-5 Total Severity Score, CFB, Median [1, 13]: −31.0
CAPS-5 Total Severity Score, Actual, Mean [1, 14]: 40.8
CAPS-5 Total Severity Score, Actual, Median [1, 14]: 40.0
CAPS-5 Total Severity Score, Actual, Mean [1, 15]: 29.5
CAPS-5 Total Severity Score, Actual, Median [1, 15]: 31.0
CAPS-5 Total Severity Score, CFB, Mean [1, 15]: −11.3
CAPS-5 Total Severity Score, CFB, Median [1, 15]: −12.0
CAPS-5 Total Severity Score, Actual, Mean [1, 16]: 22.0
CAPS-5 Total Severity Score, Actual, Median [1, 16]: 23.0
CAPS-5 Total Severity Score, CFB, Mean [1, 16]: −18.8
CAPS-5 Total Severity Score, CFB, Median [1, 16]: −19.0
CAPS-5 Total Severity Score, Actual, Mean [1, 17]: 15.9
CAPS-5 Total Severity Score, Actual, Median [1, 17]: 14.0
CAPS-5 Total Severity Score, CFB, Mean [1, 17]: −24.8
CAPS-5 Total Severity Score, CFB, Median [1, 17]: −27.0
CAPS-5 Total Severity Score, Actual, Mean [1, 18]: 39.4
CAPS-5 Total Severity Score, Actual, Median [1, 18]: 38.5
CAPS-5 Total Severity Score, Actual, Mean [1, 19]: 28.1
CAPS-5 Total Severity Score, Actual, Median [1, 19]: 30.5
CAPS-5 Total Severity Score, CFB, Mean [1, 19]: −11.3
CAPS-5 Total Severity Score, CFB, Median [1, 19]: −12.0
CAPS-5 Total Severity Score, Actual, Mean [1, 20]: 19.7
CAPS-5 Total Severity Score, Actual, Median [1, 20]: 18.0
CAPS-5 Total Severity Score, CFB, Mean [1, 20]: −19.8
CAPS-5 Total Severity Score, CFB, Median [1, 20]: −22.0
CAPS-5 Total Severity Score, Actual, Mean [1, 21]: 14.8
CAPS-5 Total Severity Score, Actual, Median [1, 21]: 12.0
CAPS-5 Total Severity Score, CFB, Mean [1, 21]: −24.5
CAPS-5 Total Severity Score, CFB, Median [1, 21]: −27.0
metabolizing CYP enzymes [2]: metabolized primarily by CYP2B6 and CYP2D6
